# Data published in PubChem BioAssay (NCI).
#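 Step 1: Grow cells in 96-well plates. Step 2: Expose to compound for 48 hours at 5 concentrations. Step 3: Interpolate endpoints linearly; if unreached, use highest concentration. Abbreviation: GI50, concentration required for 50% inhibition of growth. TGI denotes the concentration required for complete inhibition of growth.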
# Assays:
# Experiment in all cases: growth of human tumour cells (NCI), 48 h
# SK-OV-3 ovarian = test system: SK-OV-3 ovarian
# U251 CNS = test system: U251 CNS
# K-562 leukemia = test system: K-562 leukemia
# SNB-19 CNS = test system: SNB-19 CNS
# SN12C renal = test system: SN12C renal
# EKVX NSCLC = test system: EKVX NSCLC
# HCT-15 colon = test system: HCT-15 colon
# MDA-MB-231 breast = test system: MDA-MB-231 breast
# A498 renal = test system: A498 renal
# NCI/ADR-RES ovarian = test system: NCI/ADR-RES ovarian
# NCI-H226 lung = test system: NCI-H226 lung
# T-47D breast = test system: T-47D breast
# HOP-62 NSCLC = test system: HOP-62 NSCLC
# SW-620 colon = test system: SW-620 colon
# HT29 colon = test system: HT29 colon
# OVCAR-4 ovarian = test system: OVCAR-4 ovarian
# OVCAR-5 ovarian = test system: OVCAR-5 ovarian
# SK-MEL-5 melanoma = test system: SK-MEL-5 melanoma
# MDA-MB-435 = test system: MDA-MB-435
# CAKI-1 renal = test system: CAKI-1 renal
# MALME-3M melanoma = test system: MALME-3M melanoma
# RXF 393 renal = test system: RXF 393 renal
# LOX IMVI melanoma = test system: LOX IMVI melanoma
# UACC-257 melanoma = test system: UACC-257 melanoma
# SK-MEL-2 melanoma = test system: SK-MEL-2 melanoma
# NCI-H23 lung = test system: NCI-H23 lung
# M14 melanoma = test system: M14 melanoma
# ACHN renal = test system: ACHN renal
# A549 NSCLC = test system: A549 NSCLC
# UO-31 renal = test system: UO-31 renal
# UACC-62 melanoma = test system: UACC-62 melanoma
# NCI-H522 lung = test system: NCI-H522 lung
# SF-539 CNS = test system: SF-539 CNS
# SF-268 CNS = test system: SF-268 CNS
# BT-549 breast = test system: BT-549 breast
# SNB-75 CNS = test system: SNB-75 CNS
# CCRF-CEM leukemia = test system: CCRF-CEM leukemia
# HS 578T breast = test system: HS 578T breast
# SF-295 CNS = test system: SF-295 CNS
# HL-60(TB) leukemia = test system: HL-60(TB) leukemia
# DU-145 prostate = test system: DU-145 prostate
# HCT-116 colon = test system: HCT-116 colon
# RPMI-8226 leukemia = test system: RPMI-8226 leukemia
# SK-MEL-28 melanoma = test system: SK-MEL-28 melanoma
# OVCAR-8 ovarian = test system: OVCAR-8 ovarian
# MOLT-4 leukemia = test system: MOLT-4 leukemia
# KM12 colon = test system: KM12 colon
# TK-10 renal = test system: TK-10 renal
# HOP-92 NSCLC = test system: HOP-92 NSCLC
# HCC-2998 colon = test system: HCC-2998 colon
# PC-3 prostate = test system: PC-3 prostate
# 786-0 renal = test system: 786-0 renal
# MCF7 breast = test system: MCF7 breast
# NCI-H460 lung = test system: NCI-H460 lung
# IGROV1 ovarian = test system: IGROV1 ovarian
# SR leukemia = test system: SR leukemia
# OVCAR-3 ovarian = test system: OVCAR-3 ovarian
# COLO 205 colon = test system: COLO 205 colon
compound,measurement,setting,value
CCN(CC)C(=S)SSCCO,GI50,SK-OV-3 ovarian,73.9 µM
same,TGI,SK-OV-3 ovarian,> 100 µM
same,GI50,U251 CNS,16.7 µM
same,TGI,U251 CNS,37.5 µM
same,GI50,K-562 leukemia,4.21 µM
same,TGI,K-562 leukemia,18 µM
same,GI50,SNB-19 CNS,95.4 µM
same,TGI,SNB-19 CNS,> 100 µM
same,GI50,SN12C renal,17.4 µM
same,TGI,SN12C renal,32.2 µM
same,GI50,EKVX NSCLC,20.1 µM
same,TGI,EKVX NSCLC,39.7 µM
same,GI50,HCT-15 colon,17.9 µM
same,TGI,HCT-15 colon,38.4 µM
same,GI50,MDA-MB-231 breast,15.3 µM
same,TGI,MDA-MB-231 breast,30.3 µM
same,GI50,A498 renal,85 µM
same,TGI,A498 renal,> 100 µM
same,GI50,NCI/ADR-RES ovarian,17.1 µM
same,TGI,NCI/ADR-RES ovarian,32.5 µM
same,GI50,NCI-H226 lung,> 100 µM
same,TGI,NCI-H226 lung,> 100 µM
same,GI50,T-47D breast,15.4 µM
same,TGI,T-47D breast,34.2 µM
same,GI50,HOP-62 NSCLC,> 100 µM
same,TGI,HOP-62 NSCLC,> 100 µM
same,GI50,SW-620 colon,13.6 µM
same,TGI,SW-620 colon,26.5 µM
same,GI50,HT29 colon,17 µM
same,TGI,HT29 colon,30.8 µM
same,GI50,OVCAR-4 ovarian,14.7 µM
same,TGI,OVCAR-4 ovarian,27.9 µM
same,GI50,OVCAR-5 ovarian,17.7 µM
same,TGI,OVCAR-5 ovarian,31.5 µM
same,GI50,SK-MEL-5 melanoma,16.5 µM
same,TGI,SK-MEL-5 melanoma,53.1 µM
same,GI50,MDA-MB-435,15.6 µM
same,TGI,MDA-MB-435,31.7 µM
same,GI50,CAKI-1 renal,13.6 µM
same,TGI,CAKI-1 renal,27.5 µM
same,GI50,MALME-3M melanoma,17.9 µM
same,TGI,MALME-3M melanoma,35 µM
same,GI50,RXF 393 renal,19.4 µM
same,TGI,RXF 393 renal,34.8 µM
same,GI50,LOX IMVI melanoma,19.9 µM
same,TGI,LOX IMVI melanoma,46.3 µM
same,GI50,UACC-257 melanoma,19.1 µM
same,TGI,UACC-257 melanoma,48.6 µM
same,GI50,SK-MEL-2 melanoma,19.9 µM
same,TGI,SK-MEL-2 melanoma,39.6 µM
same,GI50,NCI-H23 lung,16.4 µM
same,TGI,NCI-H23 lung,31.5 µM
same,GI50,M14 melanoma,14.2 µM
same,TGI,M14 melanoma,27.5 µM
same,GI50,ACHN renal,18.7 µM
same,TGI,ACHN renal,35.8 µM
same,GI50,A549 NSCLC,79.9 µM
same,TGI,A549 NSCLC,> 100 µM
same,GI50,UO-31 renal,15.8 µM
same,TGI,UO-31 renal,32.3 µM
same,GI50,UACC-62 melanoma,15.3 µM
same,TGI,UACC-62 melanoma,29.2 µM
same,GI50,NCI-H522 lung,0.211 µM
same,TGI,NCI-H522 lung,20.3 µM
same,GI50,SF-539 CNS,15.7 µM
same,TGI,SF-539 CNS,29.1 µM
same,GI50,SF-268 CNS,19 µM
same,TGI,SF-268 CNS,37.1 µM
same,GI50,BT-549 breast,16 µM
same,TGI,BT-549 breast,31.9 µM
same,GI50,SNB-75 CNS,14.8 µM
same,TGI,SNB-75 CNS,28 µM
same,GI50,CCRF-CEM leukemia,14.5 µM
same,TGI,CCRF-CEM leukemia,45.2 µM
same,GI50,HS 578T breast,16 µM
same,TGI,HS 578T breast,34.7 µM
same,GI50,SF-295 CNS,33.5 µM
same,TGI,SF-295 CNS,> 100 µM
same,GI50,HL-60(TB) leukemia,2.17 µM
same,TGI,HL-60(TB) leukemia,8.96 µM
same,GI50,DU-145 prostate,37.8 µM
same,TGI,DU-145 prostate,> 100 µM
same,GI50,HCT-116 colon,14.6 µM
same,TGI,HCT-116 colon,27.7 µM
same,GI50,RPMI-8226 leukemia,14.4 µM
same,TGI,RPMI-8226 leukemia,39.5 µM
same,GI50,SK-MEL-28 melanoma,15.8 µM
same,TGI,SK-MEL-28 melanoma,29.3 µM
same,GI50,OVCAR-8 ovarian,19.3 µM
same,TGI,OVCAR-8 ovarian,38.7 µM
same,GI50,MOLT-4 leukemia,4.7 µM
same,TGI,MOLT-4 leukemia,21.7 µM
same,GI50,KM12 colon,15 µM
same,TGI,KM12 colon,30.1 µM
same,GI50,TK-10 renal,24 µM
same,TGI,TK-10 renal,40.8 µM
same,GI50,HOP-92 NSCLC,14.6 µM
same,TGI,HOP-92 NSCLC,27.7 µM
same,GI50,HCC-2998 colon,18.9 µM
same,TGI,HCC-2998 colon,43.3 µM
same,GI50,PC-3 prostate,14.9 µM
same,TGI,PC-3 prostate,28.1 µM
COc1ccc(C(=O)/C=C/c2ccc(OCc3ccccc3)c(OC)c2)cc1OC,GI50,SK-OV-3 ovarian,2.97 µM
same,TGI,SK-OV-3 ovarian,12.4 µM
same,GI50,U251 CNS,3.51 µM
same,TGI,U251 CNS,> 100 µM
same,GI50,K-562 leukemia,3.4 µM
same,TGI,K-562 leukemia,> 100 µM
same,GI50,SNB-19 CNS,5.31 µM
same,TGI,SNB-19 CNS,> 100 µM
same,GI50,SN12C renal,3.97 µM
same,TGI,SN12C renal,> 100 µM
same,GI50,HCT-15 colon,2.78 µM
same,TGI,HCT-15 colon,> 100 µM
same,GI50,MDA-MB-231 breast,3.7 µM
same,TGI,MDA-MB-231 breast,> 100 µM
same,GI50,A498 renal,3.24 µM
same,TGI,A498 renal,25.3 µM
same,GI50,786-0 renal,5.36 µM
same,TGI,786-0 renal,> 100 µM
same,GI50,NCI/ADR-RES ovarian,3.08 µM
same,TGI,NCI/ADR-RES ovarian,> 100 µM
same,GI50,NCI-H226 lung,3.18 µM
same,TGI,NCI-H226 lung,36.6 µM
same,GI50,T-47D breast,4.33 µM
same,TGI,T-47D breast,> 100 µM
same,GI50,HOP-62 NSCLC,3.67 µM
same,TGI,HOP-62 NSCLC,> 100 µM
same,GI50,SW-620 colon,3.05 µM
same,TGI,SW-620 colon,> 100 µM
same,GI50,HT29 colon,3.19 µM
same,TGI,HT29 colon,89.7 µM
same,GI50,OVCAR-4 ovarian,5.01 µM
same,TGI,OVCAR-4 ovarian,> 100 µM
same,GI50,MCF7 breast,3.02 µM
same,TGI,MCF7 breast,> 100 µM
same,GI50,NCI-H460 lung,2.93 µM
same,TGI,NCI-H460 lung,14.4 µM
same,GI50,OVCAR-5 ovarian,3.55 µM
same,TGI,OVCAR-5 ovarian,> 100 µM
same,GI50,SK-MEL-5 melanoma,3.61 µM
same,TGI,SK-MEL-5 melanoma,17.2 µM
same,GI50,MDA-MB-435,2.97 µM
same,TGI,MDA-MB-435,> 100 µM
same,GI50,IGROV1 ovarian,5.04 µM
same,TGI,IGROV1 ovarian,> 100 µM
same,GI50,CAKI-1 renal,4.07 µM
same,TGI,CAKI-1 renal,> 100 µM
same,GI50,MALME-3M melanoma,12.7 µM
same,TGI,MALME-3M melanoma,> 100 µM
same,GI50,RXF 393 renal,2.32 µM
same,TGI,RXF 393 renal,5.9 µM
same,GI50,LOX IMVI melanoma,2.84 µM
same,TGI,LOX IMVI melanoma,24.1 µM
same,GI50,UACC-257 melanoma,6.25 µM
same,TGI,UACC-257 melanoma,> 100 µM
same,GI50,SK-MEL-2 melanoma,11 µM
same,TGI,SK-MEL-2 melanoma,36.3 µM
same,GI50,NCI-H23 lung,4.18 µM
same,TGI,NCI-H23 lung,66.7 µM
same,GI50,SR leukemia,2.47 µM
same,TGI,SR leukemia,> 100 µM
same,GI50,M14 melanoma,5.91 µM
same,TGI,M14 melanoma,> 100 µM
same,GI50,ACHN renal,4.31 µM
same,TGI,ACHN renal,> 100 µM
same,GI50,A549 NSCLC,3.05 µM
same,TGI,A549 NSCLC,29.6 µM
same,GI50,UO-31 renal,4.16 µM
same,TGI,UO-31 renal,> 100 µM
same,GI50,UACC-62 melanoma,4.01 µM
same,TGI,UACC-62 melanoma,> 100 µM
same,GI50,NCI-H522 lung,2.34 µM
same,TGI,NCI-H522 lung,6.54 µM
same,GI50,SF-539 CNS,2.67 µM
same,TGI,SF-539 CNS,7.38 µM
same,GI50,SF-268 CNS,3.83 µM
same,TGI,SF-268 CNS,> 100 µM
same,GI50,BT-549 breast,2.79 µM
same,TGI,BT-549 breast,8.11 µM
same,GI50,CCRF-CEM leukemia,3.04 µM
same,TGI,CCRF-CEM leukemia,71.2 µM
same,GI50,HS 578T breast,2.8 µM
same,TGI,HS 578T breast,71.4 µM
same,GI50,HL-60(TB) leukemia,3.67 µM
same,TGI,HL-60(TB) leukemia,32.5 µM
same,GI50,OVCAR-3 ovarian,2.85 µM
same,TGI,OVCAR-3 ovarian,8.77 µM
same,GI50,DU-145 prostate,2.76 µM
same,TGI,DU-145 prostate,8.1 µM
same,GI50,HCT-116 colon,3.19 µM
same,TGI,HCT-116 colon,> 100 µM
same,GI50,RPMI-8226 leukemia,1.88 µM
same,TGI,RPMI-8226 leukemia,7.16 µM
same,GI50,SK-MEL-28 melanoma,17.3 µM
same,TGI,SK-MEL-28 melanoma,> 100 µM
same,GI50,OVCAR-8 ovarian,3.1 µM
same,TGI,OVCAR-8 ovarian,> 100 µM
same,GI50,MOLT-4 leukemia,3.65 µM
same,TGI,MOLT-4 leukemia,> 100 µM
same,GI50,KM12 colon,3.48 µM
same,TGI,KM12 colon,> 100 µM
same,GI50,TK-10 renal,4.32 µM
same,TGI,TK-10 renal,43.8 µM
same,GI50,COLO 205 colon,3.53 µM
same,TGI,COLO 205 colon,22.6 µM
same,GI50,HOP-92 NSCLC,1.4 µM
same,TGI,HOP-92 NSCLC,5.81 µM
same,GI50,HCC-2998 colon,3.22 µM
same,TGI,HCC-2998 colon,28 µM
same,GI50,PC-3 prostate,5.11 µM
same,TGI,PC-3 prostate,> 100 µM
